Assay results as given in patent US20190387748A1, “COMPOSITIONS AND RELATED METHODS FOR AGRICULTURE” (priority 2017, published 2019).
“Also recorded” adds a separate entry of the source.

Legend:
[1] = system: Acyrthosiphon pisum aphids; test: Aphid survival monitoring; format: in vivo
Text: For each treatment, 33 aphids were placed onto each leaf. Artificial diet feeding systems were changed every 2-3 days throughout the experiment. Aphids were monitored daily for survival and dead aphids were removed from the deep petri dish housing the artificial feeding system when they were discovered.
Each treatment group received approximately the same number of individuals from each of the collection plant. For each treatment, 20 aphids were placed onto each leaf. Aphids were monitored daily for survival and dead aphids were removed when they were discovered. In addition, the developmental stage (1st, 2nd, 3rd, 4th, 5th instar, and 5R, representing a reproducing 5th instar) was determined daily throughout the experiment. Pictures of aphids were taken throughout the experiment to evaluate size differences between treatment groups.
(Vroma vicia faba from Johnny's Selected Seeds) in a climate-controlled incubator (16 h light/8 h dark photoperiod; 60±5% RH; 25±2° C.). Prior to being used for aphid rearing, fava bean plants were grown in potting soil at 24° C. with 16 h of light and 8 h of darkness. To limit maternal effects or health differences between plants, 5-10 adults from different plants were distributed among 10 two-week-old plants, and allowed to multiply to high density for 5-7 days. For experiments, first and second instar aphids were collected from healthy plants and divided into 2 different treatment groups: 1) negative control (leaf injected with water plus blue food coloring) and 2) leaf injected with 50 μg/ml rifampicin in water plus blue food coloring. Each treatment group received approximately the same number of individuals from each of the collection plants. For treatment, rifampicin stock solution (25 mg/ml in 100% methanol) was diluted to 50 μg/ml in water plus blue food coloring. The solution was then placed into a 1.5 ml Eppendorf tube with a fava bean stem perfused with the solutions and the opening of the tube was closed using parafilm. This feeding system was then placed into a deep petri dish (Fisher Scientific, Cat# FB0875711) and aphids were applied to the leaves of the plant. For each treatment, 74-81 aphids were placed onto each leaf. The feeding systems were changed every 2-3 days throughout the experiment. Aphids were monitored daily for survival and dead aphids were removed from the deep petri dish when they were discovered. In addition, the developmental stage (1st, 2nd, 3rd, 4th, 5th and 5R (5th that has reproduced) instar) was determined daily throughout the experiment.
For each treatment, 49-50 aphids were placed onto each leaf. The feeding systems were changed every 2-3 days throughout the experiment. Aphids were monitored daily for survival and dead aphids were removed from the deep petri dish when they were discovered.
For each treatment, 76-80 aphids were placed onto each leaf. The feeding systems were changed every 2-3 days throughout the experiment. Aphids were monitored daily for survival and dead aphids were removed from the deep petri dish when they were discovered.
For each treatment, 50-51 aphids were placed onto each leaf. The feeding systems were changed every 2-3 days throughout the experiment. Aphids were monitored daily for survival and dead aphids were removed from the deep petri dish when they were discovered.
For each treatment, 56-59 aphids were placed onto each leaf. The feeding systems were changed every 2-3 days throughout the experiment. Aphids were monitored daily for survival and dead aphids were removed from the deep petri dish when they were discovered.
For each treatment, 57-59 aphids were placed onto each leaf. The feeding systems were changed every 2-3 days throughout the experiment. Aphids were monitored daily for survival and dead aphids were removed from the deep petri dish when they were discovered.
For each treatment, 15-87 aphids were placed onto each leaf. Artificial diet feeding systems were changed every 2-3 days throughout the experiment.

Buchnera = test: qPCR of Buchnera/aphid DNA copy numbers (symbiont titer); format: in vivo, Buchnera aphidicola; details: 10 or 100 uM pantothenol, through plants; 8 days
Method: (§1) After 7 days of treatment, DNA was extracted from multiple aphids from each treatment group. Briefly, the aphid body surface was sterilized by dipping the aphid into a 6% bleach solution for approximately 5 seconds. Aphids were then rinsed in sterile water and DNA was extracted from each individual aphid using a DNA extraction kit (Qiagen, DNeasy kit) according to manufacturer's instructions. DNA concentration was measured using a nanodrop nucleic acid quantification, and Buchnera and aphid DNA copy numbers were measured by qPCR.
After 6 days of treatment, DNA was extracted from multiple aphids from each treatment group and qPCR for quantifying Buchnera levels was done as described in the previous Example.
as §1, with “8” for “7”
as §1, with “After 8” for “After 7”, “from the remaining” for “from multiple”, “aphids in” for “aphids from”
as §1, with “Briefly,” for “After 7 days of treatment, DNA was extracted from multiple aphids from each treatment group. Briefly,”
as §1, with “Briefly,” for “After 7 days of treatment, DNA was extracted from multiple aphids from each treatment group. Briefly,”
as §1, with “3” for “7”, “the remaining living” for “multiple”
as §1, with “After 5” for “After 7”, “from the remaining” for “from multiple”, “aphids in” for “aphids from”
At 5 days post-treatment, DNA was extracted from several aphids in each treatment group. Briefly, the aphid body surface was sterilized by dipping the aphid into a 6% bleach solution for approximately 5 seconds.

Compound: CC(C)(CO)[C@@H](O)C(=O)NCCCO [pantothenol]
- Aphid survival / mortality ([1]; 10 or 100 uM pantothenol, through plants): increased aphid mortality; also recorded: negatively affected aphid fitness
- Aphid survival rate ([1]; leaf coating, 10 uM pantothenol): resulted in aphid death; also recorded: lower survival rates than aphids placed on coated leaves with the control solution
- Buchnera/aphid DNA copies (Buchnera): did not affect endosymbiotic Buchnera; also recorded: high ratios of Buchnera/aphid DNA copies
